Results reported in ChEMBL document CHEMBL3132769, “Fragment growing to retain or alter the selectivity of anchored kinase hinge-binding fragments” (Medchemcomm, 2014).

Columns and labels:
[1] = biological target: Insulin receptor (Homo sapiens) (UniProt P06213); assay: Inhibition of human INSR catalytic domain expressed in baculovirus assessed as substrate phosphorylation using fluorescence-labelled peptides as substrate at 0.2 uM after 90 mins by microfluidic peptide phosphorylation assay
[2] = biological target: T1, Serine/threonine-protein kinase BRSK1 (Homo sapiens) (UniProt Q8TDC3); assay: Inhibition of human full length BRSK1 expressed in baculovirus assessed as substrate phosphorylation using fluorescence-labelled peptides as substrate at 0.2 uM after 90 mins by microfluidic peptide phosphorylation assay
T1 sequence (whole entry): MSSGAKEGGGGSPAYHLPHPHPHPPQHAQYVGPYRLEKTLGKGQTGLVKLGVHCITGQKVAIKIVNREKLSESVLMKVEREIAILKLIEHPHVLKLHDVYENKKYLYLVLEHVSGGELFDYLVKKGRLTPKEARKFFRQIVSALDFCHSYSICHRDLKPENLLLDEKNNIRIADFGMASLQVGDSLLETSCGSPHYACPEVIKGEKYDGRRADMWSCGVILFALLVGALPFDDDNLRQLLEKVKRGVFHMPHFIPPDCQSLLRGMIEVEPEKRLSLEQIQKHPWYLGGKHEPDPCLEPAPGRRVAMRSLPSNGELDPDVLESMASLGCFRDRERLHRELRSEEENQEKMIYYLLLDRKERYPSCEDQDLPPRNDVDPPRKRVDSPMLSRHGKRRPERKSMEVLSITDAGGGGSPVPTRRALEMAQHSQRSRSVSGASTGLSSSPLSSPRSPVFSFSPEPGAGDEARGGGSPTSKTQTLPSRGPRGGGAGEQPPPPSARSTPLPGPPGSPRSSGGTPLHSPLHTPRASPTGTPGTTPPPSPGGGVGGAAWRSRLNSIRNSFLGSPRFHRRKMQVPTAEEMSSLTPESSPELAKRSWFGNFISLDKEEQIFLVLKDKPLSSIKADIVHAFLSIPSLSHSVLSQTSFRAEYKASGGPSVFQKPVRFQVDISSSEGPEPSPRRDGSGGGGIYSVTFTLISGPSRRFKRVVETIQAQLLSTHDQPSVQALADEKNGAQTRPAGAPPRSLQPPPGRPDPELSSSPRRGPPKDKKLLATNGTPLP

[3] = biological target: MAP kinase-activated protein kinase 2 (Homo sapiens) (UniProt P49137); assay: Inhibition of human full length MAPKAPK2 expressed in baculovirus assessed as substrate phosphorylation using fluorescence-labelled peptides as substrate at 2 uM after 90 mins by microfluidic peptide phosphorylation assay
[4] = biological target: Calcium/calmodulin-dependent protein kinase type II subunit delta (Homo sapiens) (UniProt Q13557); assay: Inhibition of human full length CAMK2D expressed in baculovirus assessed as substrate phosphorylation using fluorescence-labelled peptides as substrate at 9 uM after 90 mins by microfluidic peptide phosphorylation assay
[5] = biological target: T2, Serine/threonine-protein kinase Sgk2 (Homo sapiens) (UniProt Q9HBY8); assay: Inhibition of human full length SGK2 expressed in baculovirus assessed as substrate phosphorylation using fluorescence-labelled peptides as substrate at 0.1 uM after 90 mins by microfluidic peptide phosphorylation assay
T2 sequence (whole entry): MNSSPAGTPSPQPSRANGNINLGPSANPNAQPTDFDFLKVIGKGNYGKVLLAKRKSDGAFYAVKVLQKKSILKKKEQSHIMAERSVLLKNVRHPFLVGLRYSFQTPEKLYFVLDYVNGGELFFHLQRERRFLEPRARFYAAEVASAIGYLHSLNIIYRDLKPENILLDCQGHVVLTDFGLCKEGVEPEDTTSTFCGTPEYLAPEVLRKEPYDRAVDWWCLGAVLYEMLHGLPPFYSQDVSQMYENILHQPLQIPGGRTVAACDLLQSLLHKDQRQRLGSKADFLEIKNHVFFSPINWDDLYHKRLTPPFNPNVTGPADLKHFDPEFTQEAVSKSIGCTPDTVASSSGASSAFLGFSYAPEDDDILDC

[6] = biological target: T3, Mitogen-activated protein kinase 12 (Homo sapiens) (UniProt P53778); assay: Inhibition of human full length p38 gamma expressed in Escherichia coli cell assessed as substrate phosphorylation using fluorescence-labelled peptides as substrate at 0.1 uM after 90 mins by microfluidic peptide phosphorylation assay
T3 sequence (whole entry): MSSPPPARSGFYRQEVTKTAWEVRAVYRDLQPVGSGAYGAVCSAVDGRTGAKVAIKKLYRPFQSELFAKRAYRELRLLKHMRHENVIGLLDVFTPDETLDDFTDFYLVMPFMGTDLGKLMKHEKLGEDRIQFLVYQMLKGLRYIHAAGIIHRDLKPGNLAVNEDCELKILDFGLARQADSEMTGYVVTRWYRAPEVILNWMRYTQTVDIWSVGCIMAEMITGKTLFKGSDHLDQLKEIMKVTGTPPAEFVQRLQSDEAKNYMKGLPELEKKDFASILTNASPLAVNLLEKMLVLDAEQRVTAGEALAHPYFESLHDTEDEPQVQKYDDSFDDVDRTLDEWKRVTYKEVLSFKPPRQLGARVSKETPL

[7] = biological target: Ribosomal protein S6 kinase alpha-2 (Homo sapiens) (UniProt Q15349); assay: Inhibition of human full length RSK3 expressed in baculovirus assessed as substrate phosphorylation using fluorescence-labelled peptides as substrate at 1000 uM after 90 mins by microfluidic peptide phosphorylation assay
[8] = biological target: Tyrosine-protein kinase Fyn (Homo sapiens) (UniProt P06241); assay: Inhibition of human full length FYN expressed in baculovirus assessed as substrate phosphorylation using fluorescence-labelled peptides as substrate at 70 uM after 90 mins by microfluidic peptide phosphorylation assay
[9] = biological target: T4, Cytoplasmic tyrosine-protein kinase BMX (Homo sapiens) (UniProt P51813); assay: Inhibition of human full length BMX expressed in baculovirus assessed as substrate phosphorylation using fluorescence-labelled peptides as substrate at 70 uM after 90 mins by microfluidic peptide phosphorylation assay
T4 sequence (whole entry): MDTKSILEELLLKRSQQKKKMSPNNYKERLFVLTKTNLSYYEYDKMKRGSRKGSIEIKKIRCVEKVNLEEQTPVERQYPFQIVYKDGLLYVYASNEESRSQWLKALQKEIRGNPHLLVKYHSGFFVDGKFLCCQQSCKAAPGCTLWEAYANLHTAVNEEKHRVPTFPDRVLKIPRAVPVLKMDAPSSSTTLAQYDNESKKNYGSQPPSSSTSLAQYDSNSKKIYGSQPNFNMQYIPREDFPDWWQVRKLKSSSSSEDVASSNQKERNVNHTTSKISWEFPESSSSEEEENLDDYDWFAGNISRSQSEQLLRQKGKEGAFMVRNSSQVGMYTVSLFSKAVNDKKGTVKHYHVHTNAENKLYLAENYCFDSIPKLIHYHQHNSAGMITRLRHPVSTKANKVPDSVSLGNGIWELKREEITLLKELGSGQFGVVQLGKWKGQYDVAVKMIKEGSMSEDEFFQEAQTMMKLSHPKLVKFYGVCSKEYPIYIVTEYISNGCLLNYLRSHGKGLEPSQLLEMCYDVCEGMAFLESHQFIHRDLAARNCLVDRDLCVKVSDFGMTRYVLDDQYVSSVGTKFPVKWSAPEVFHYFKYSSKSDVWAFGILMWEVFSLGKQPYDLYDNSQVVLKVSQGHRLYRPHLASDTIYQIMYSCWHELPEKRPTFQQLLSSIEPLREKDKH

Chain of MAP kinase-activated protein kinase 2 (Homo sapiens) (P49137 whole entry, looked up): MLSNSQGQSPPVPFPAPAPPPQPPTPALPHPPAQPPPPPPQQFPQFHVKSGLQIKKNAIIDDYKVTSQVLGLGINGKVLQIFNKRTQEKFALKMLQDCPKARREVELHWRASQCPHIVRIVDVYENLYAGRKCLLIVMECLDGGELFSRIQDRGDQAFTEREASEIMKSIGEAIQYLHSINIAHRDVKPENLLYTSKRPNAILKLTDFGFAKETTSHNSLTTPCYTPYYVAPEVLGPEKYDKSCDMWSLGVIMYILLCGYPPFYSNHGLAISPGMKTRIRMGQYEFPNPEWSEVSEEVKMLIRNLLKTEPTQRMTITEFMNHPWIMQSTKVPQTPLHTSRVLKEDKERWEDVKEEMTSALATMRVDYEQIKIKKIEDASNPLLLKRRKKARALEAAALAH
Chain of Ribosomal protein S6 kinase alpha-2 (Homo sapiens) (Q15349 whole entry): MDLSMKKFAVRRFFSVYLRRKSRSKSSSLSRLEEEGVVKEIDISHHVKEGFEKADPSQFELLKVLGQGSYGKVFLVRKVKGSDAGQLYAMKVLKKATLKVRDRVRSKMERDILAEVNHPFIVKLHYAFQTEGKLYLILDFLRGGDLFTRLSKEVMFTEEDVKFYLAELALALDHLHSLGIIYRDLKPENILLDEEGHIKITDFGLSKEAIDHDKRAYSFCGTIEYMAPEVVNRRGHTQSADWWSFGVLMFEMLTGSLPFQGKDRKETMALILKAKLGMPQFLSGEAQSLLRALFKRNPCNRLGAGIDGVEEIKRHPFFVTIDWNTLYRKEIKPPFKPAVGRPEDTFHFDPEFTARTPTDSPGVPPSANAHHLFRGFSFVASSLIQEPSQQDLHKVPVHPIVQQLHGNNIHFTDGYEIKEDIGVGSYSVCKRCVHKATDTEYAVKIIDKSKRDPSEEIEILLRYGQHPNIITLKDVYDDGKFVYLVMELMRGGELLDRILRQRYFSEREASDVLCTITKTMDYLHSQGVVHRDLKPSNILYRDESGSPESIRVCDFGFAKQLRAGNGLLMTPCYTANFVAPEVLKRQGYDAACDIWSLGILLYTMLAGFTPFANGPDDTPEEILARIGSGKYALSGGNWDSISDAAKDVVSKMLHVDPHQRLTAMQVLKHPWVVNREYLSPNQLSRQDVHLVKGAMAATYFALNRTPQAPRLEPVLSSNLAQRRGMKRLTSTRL
Chain of Calcium/calmodulin-dependent protein kinase type II subunit delta (Homo sapiens) (Q13557 whole entry): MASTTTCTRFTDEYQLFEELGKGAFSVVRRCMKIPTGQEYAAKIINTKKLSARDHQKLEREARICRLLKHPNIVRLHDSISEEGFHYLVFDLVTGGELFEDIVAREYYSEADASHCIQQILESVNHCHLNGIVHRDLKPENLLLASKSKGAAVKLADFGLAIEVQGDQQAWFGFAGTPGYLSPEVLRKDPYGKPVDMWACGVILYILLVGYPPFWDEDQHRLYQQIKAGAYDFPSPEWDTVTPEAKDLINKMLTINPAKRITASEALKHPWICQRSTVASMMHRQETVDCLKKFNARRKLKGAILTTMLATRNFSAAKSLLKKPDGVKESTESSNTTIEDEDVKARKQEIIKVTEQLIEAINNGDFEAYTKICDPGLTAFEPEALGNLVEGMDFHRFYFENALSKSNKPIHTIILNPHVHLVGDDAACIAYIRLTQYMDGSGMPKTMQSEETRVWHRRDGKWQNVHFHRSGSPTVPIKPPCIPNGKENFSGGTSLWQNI
Chain of Tyrosine-protein kinase Fyn (Homo sapiens) (P06241 2-537 limits assumed): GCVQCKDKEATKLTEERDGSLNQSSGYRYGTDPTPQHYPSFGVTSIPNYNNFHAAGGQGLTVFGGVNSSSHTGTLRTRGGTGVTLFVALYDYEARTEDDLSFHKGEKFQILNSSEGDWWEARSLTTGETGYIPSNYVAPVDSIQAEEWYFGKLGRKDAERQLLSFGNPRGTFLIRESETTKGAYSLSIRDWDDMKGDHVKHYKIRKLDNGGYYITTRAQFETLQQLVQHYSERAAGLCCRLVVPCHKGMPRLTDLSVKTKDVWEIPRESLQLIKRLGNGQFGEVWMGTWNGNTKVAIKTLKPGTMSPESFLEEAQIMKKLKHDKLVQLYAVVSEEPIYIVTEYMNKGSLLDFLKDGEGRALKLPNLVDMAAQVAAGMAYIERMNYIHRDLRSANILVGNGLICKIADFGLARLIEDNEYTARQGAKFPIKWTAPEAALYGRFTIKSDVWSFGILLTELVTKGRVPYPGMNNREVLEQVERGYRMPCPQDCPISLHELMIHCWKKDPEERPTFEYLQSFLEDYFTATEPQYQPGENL

Compound `Clc1ccc(C2(c3ccc(-c4ncnc5[nH]cnc45)cc3)CCNCC2)cc1` has an inhibition [1] of 11% and an inhibition [2] of 11%.
`NC1CCN(c2ncnc3[nH]ccc23)CC1` gave an inhibition [3] of 33%.
In the case of `NCC1CN(c2ncnc3[nH]c4cnccc4c23)CCO1` (centres undefined), the inhibition [4] is reported as 42.5%.
In the case of `C[C@H](CN(C)C)Oc1nc(Nc2cc3cccc(Cl)c3cn2)cnc1C#N`, the inhibition [5] is reported as 5.5% and the inhibition [6] is reported as 5.5%.
For `c1cnc2[nH]ccc2c1`, the inhibition [7] was 71%.
With `CNCc1ccc(-c2ncnc3[nH]cnc23)cc1` the inhibition [8] was 31.5% and the inhibition [9] was 0%.
